Laboratory results reported in patent US10980830B2, “Systems and methods for treating skin conditions with magnesium ion compositions” (priority 2017, dated 2021).
Read-outs that look alike come from different tables or passages of the source.

What was measured:
plaque psoriasis [1] = test system: plaque psoriasis
Text: In another example, a person with plaque psoriasis on the extensor surface of their right knee for over 15 years was started on magnesium treatment. Prior treatment with topical hydrocortisone was stopped two weeks prior. Applications using Johnson+Johnson Large Sterile Waterproof Pads with QUILTVENT™ Technology. 1.8 cc solution of 20% magnesium sulfate solution (APP Fresenius Kabi Lake Zurich, Ill. NDC63323-064-10, 50% solution diluted with sterile water) was applied every third day for eight hour durations. […] After the 10 applications of the 20% magnesium sulfate solution, the strength of the solution was increased to 40% for the next ten applications and to 50% for the following 10 applications.
A trial using a 50% solution of magnesium chloride was made by dissolving the magnesium flakes with distilled water (Hinkley Springs) and applied to the Johnson+Johnson Large Sterile Waterproof Pads with QUILTVENT™. Applications were initially for eight hours every third day. […] Following the twentieth application the applications were increased to twelve hour duration with frequency increased to every other day. […] Applications were stopped to determine if total remission been achieved. […] Treatment was continued for three additional treatments.

plaque psoriasis [2] = test system: plaque psoriasis; remark: listed apart in the source
Text: Johnson+Johnson Large Sterile Waterproof Pads with QUILTVENT™ Technology were obtained. These are similar to large waterproof bandaids measuring 2.875 inches×4 inches with a central pad that measured 1.85 inches×3 inches.

[3] = test system: pain and stiffness of the lower back
Experimental: In an effort to determine if passive diffusion of magnesium ions applied over a larger surface area under a hydrocolloid dressing could affect the pain and stiffness of the lower back approximately 0.8 mL of 50% magnesium chloride solution was sprayed on a 4″×4″ hydrocolloid patch (DuoDERM™ Extra Thin CGF Dressing, by ConvaTec) and the moist patch was placed over the lumbar spine where the pain was now localized. This was kept in place during an 8 hour period. […] A third application of a pre-moistened Duoderm dressing, this time with approximately 0.5 mL of 40% magnesium chloride solution, sprayed onto the surface prior to application to the lumbar spine area and worn for 48 hours continuously.

[4] = test system: sacroiliac (SI) joints pain and stiffness
Text: In another example, a trial of transdermal magnesium ions delivered via iontophoresis in an effort to relieve pain, tenderness, and stiffness localized to sacroiliac (SI) joints. A patient with symptoms including exacerbation of chronic low back pain associated with pain, stiffness, and tenderness of both sacroiliac joints with pain radiating to the right iliac crest over a five week period. Symptoms were moderate to severe enough to make standing erect difficult at times and walking was slow and deliberate.
An iontophoresis pad with 120 mg of magnesium chloride diluted in 4 cc of distilled water was placed over the right sacroiliac joint for 80 minutes for delivery of 40 mA minutes with a delivery setting of 0.5 mA/minute at 8:00 pm.
A second identical dose was delivered with the same iontophoresis electrodes in place. […] Ten minutes following delivery of the first dose to the […] SI joint a second identical iontophoresis dose was delivered with the same electrodes in place.

adhesive capsulitis [5] = settings: 1.8 cc of 58% wt/vol on waterproof pad, normal skin, kept in place 24 hours
Text: The same Johnson+Johnson waterproof pad was applied to normal skin over my right shoulder affected with an exacerbation of adhesive capsulitis.

chronic lower back pain = test system: chronic lower back pain
Text: In an effort to determine a threshold for therapeutic response the patient was started on gradually increasing concentrations of magnesium chloride placed on a 4 in.×4 in. hydrocolloid dressing (DupDERM™ Extra Thin CGF, by Convatec). Dosages were always approximately 1 cc sprayed onto surface of the dressing using a 20% solution of Magnesium Chloride (Mylan, NDC 674-134-50) diluted to strengths of 2%, 5%, 10% 15%, and undiluted 20%. Sterile water was used as the diluent (Hospira NDC 0409-4887-17). Dressings were kept in place for 8 hours. This method of application continued with daily graduation in the strength of solution applied. […] Using the same method of application, the dosages were increased to 30%, 40% and 50% solutions now made with magnesium flakes dissolved in distilled water.

adhesive capsulitis [6] = settings: for pain with active range of motion of the shoulder: after 16 hours of continued use
Experimental: A second attempt using transdermal magnesium treatment to affect the pain and inflammation associated with adhesive capsulitis was performed. A 1.3 cc of 50% magnesium sulfate solution (APP Fresenius Kabi Lake Zurich, Ill. NDC63323-064-10) was placed on the positive dispersal pad in an iontophoresis device (iontoPatch 80 manufactured by Travini Medical). The NaCl solution supplied with the device was placed on the negative patch. The positive patch was placed over the tender area on the lateral shoulder and kept in place for 10 hours. It was applied at 8:00 pm and removed the next morning before showering at 6:00 am. […] After showering a second replacement patch prepared in the same manner was placed at 6:15 am, 15 minutes after the first iontoPatch was removed.
The positive side of the patch now placed over a tender area on the anterior shoulder. The second patch application was kept in place for a total of 13.5 hours.

[7] = test system: recurrent plaque psoriasis
[8] = 50% solution, after 15 applications
[9] = 50% solution, after 20 applications plus ten 12 h applications every other day
[10] = 50% solution, two weeks after applications were stopped
[11] = 1.8 cc of 20% solution, 8 h every third day, following 7 applications
[12] = after increasing strength to 40% and 50% (10 applications each)

For `[Cl-].[Cl-].[Mg+2]` [magnesium chloride], the “fine scaliness and inflammation, early response” value (plaque psoriasis [1]; 50% solution, 8 h every third day, within days of starting) was “immediate improvement”, the dermal hypertrophy (plaque psoriasis [1]; [8]) was “improvement” and the fine scales (plaque psoriasis [1]; [8]) was “elimination”. The improvement in inflammation (plaque psoriasis [1]; [8]) was 90-95%, the dermal hypertrophy (plaque psoriasis [1]; [9]) was “resolved” and the fine scaliness (plaque psoriasis [1]; [9]) was “resolved”. The “finding under double polarized light head set apparatus” value (plaque psoriasis [1]; [10]) was “small erythematous islands were visualized”, the skin appearance (plaque psoriasis [1]; [10]) was “appeared normal” and the “skin finding over the previous psoriasis plaque” value (plaque psoriasis [2]; 58% wt/vol solution kept in place for 24 hour periods, resolved with days) was “small 2-4 mm painless flat scabs developed”. For the same compound, the “time until erythema and scales of the plaque started to improve” value (plaque psoriasis [2]; 58% wt/vol solution on occlusive dressing, following the first application) was at most 24 h, the “remission status of the psoriasis plaque” value (plaque psoriasis [2]; 58% wt/vol solution, twelve applications, by the start of week four) was “complete remission” and the “duration of complete remission of the psoriatic lesion” value (plaque psoriasis [2]; after pads, prophylactic daily 50% wt/vol spray into the fourth month) was “continued into the twelfth month”. For the same compound, the “pain and stiffness in the lower back” value ([3]; 50% solution on hydrocolloid dressing for a total of 9.5 hours) was “complete relief”, the “skin at the application area after the first patch” value ([3]; 50% solution on hydrocolloid patch, after removal of the first patch) was “slightly hyperemic” and the “sensation on application of the second patch” value ([3]; 50% solution on hydrocolloid patch, second application to the same area) was “transient burning sensation”. The “improvement in pain and stiffness of the lower back” value ([3]; about 0.8 mL of 50% solution on 4x4 in. hydrocolloid patch, 8 hour period) was 80%, the “duration of complete relief” value ([3]; after 9.5 hours of 50% solution on hydrocolloid dressing) was 48 h and the “severity of recurring discomfort and stiffness relative to the original pain and stiffness” value ([3]; on the third day after the 50% solution patches) was 20%. The “discomfort and stiffness of the lower back” value ([3]; third dressing, about 0.5 mL of 40% solution, after eight hours) was “Resolution”, the “improvement in pain and stiffness of the right SI joint” value ([4]; 120 mg in 4 cc water, iontophoresis 40 mA minutes, five hours after the first dose) was “approximately 50%” and the “duration of the improvement” value ([4]; after two iontophoresis doses on each SI joint) was “lasted throughout the next day”. The “improvement in pain and stiffness of the right SI joint” value ([4]; two iontophoresis doses of 120 mg in 4 cc, five hours after completion) was 80%, the “reduction in pain and stiffness of the left SI joint” value ([4]; two iontophoresis doses of 120 mg in 4 cc, two hours after treatments ended) was about 90% and the “pain associated with adhesive capsulitis” value (adhesive capsulitis [5]) was “no improvement”. The “improvement in pain and stiffness” value (chronic lower back pain; 30%, 40% and 50% solutions on hydrocolloid dressing, 8 hours) was “incremental therapeutic benefit”, the “greatest benefit estimated by the patient” value (chronic lower back pain; 50% solution on hydrocolloid dressing, after the 8 hour application) was “over 70%” and the “improvement in pain or stiffness” value (chronic lower back pain; about 1 cc of 2% or 5% solution on hydrocolloid dressing, 8 hours) was “no therapeutic improvement”. For the same compound, the “improvement in pain and stiffness” value (chronic lower back pain; about 1 cc of 10% solution on hydrocolloid dressing, after 8 hours) was 10-20% and the “improvement in pain and stiffness, estimate of the patient” value (chronic lower back pain; about 1 cc of 15% and 20% solution on hydrocolloid dressing, 8 hours) was 20-40%.
In the case of `O=S(=O)([O-])[O-].[Mg+2]` [magnesium sulfate], the itching (plaque psoriasis [1]; [11]) was “almost total relief”, the reduction in scaling (plaque psoriasis [1]; [11]) was 50% and the course of improvement (plaque psoriasis [1]; 20%, then 40% and 50% solution) was “plateaued following the first 10-12 applications”. The scaling between applications (plaque psoriasis [1]; [12]) was “persistent scaling”, the “thickness of persisting dermal hypertrophy” value (plaque psoriasis [1]; [12]) was “approximately 3 mm” and the “improvement in pain with active range of motion of the shoulder” value (adhesive capsulitis [6]; 1.3 cc of 50% solution, iontophoresis, after 10 hours) was 40%. The “active range of motion, affected right versus unaffected left shoulder” value (adhesive capsulitis [6]; 50% solution, iontophoresis, after 16 hours) was “no difference”, the “pain with active range of motion of the shoulder” value (adhesive capsulitis [6]; 50% solution, iontophoresis) was “no pain” and the “pain with active range of motion of the shoulder” value (adhesive capsulitis [6]; 50% solution, iontophoresis, listed as magnesium) was “complete relief”. For the same compound, the “reduction in pain with active range of motion of the shoulder” value (adhesive capsulitis [6]; 50% solution, iontophoresis, patches worn for a total of 12 hours) was 80%, the “duration of the beneficial effect” value (adhesive capsulitis [6]; after two iontophoresis patches with 50% solution) was “no further treatment was required over the next 10 months” and the “resolution of scaliness and erythema” value ([7]; 1 cc of 1% solution intra-dermal once daily for four days, not covered, day 14 following the injections) was 80%. The “inflammatory process and erythema” value ([7]; 1 cc of 1% solution intra-dermal once daily for four days, not covered, over the next few days) was “reduction”, the “remission status of the recurrent 1 cm plaque” value ([7]; after 1% injections plus iontophoresis of 1.5 cc 50% solution on days 16 and 18, by day 28) was “complete remission” and the “effect on a small area of recurrent plaque psoriasis” value ([7]; intra-dermal injections of 1% solution) was “effective”.
